According to PMC4608799, “Structural and Functional Analysis of Murine Polyomavirus Capsid Proteins Establish the Determinants of Ligand Recognition and Pathogenicity” (PLoS Pathogens, 2015):

What was measured:
RA VP1 = target: T1, RA VP1 (Mouse polyomavirus (strain p16 small-plaque), UniProt P49302); test: concentration-dependent crystal soaking, electron density quantified; assay type: binding; details: 1.5 M ammonium sulfate (competes with the Neu5Ac carboxylate), 20 C crystals, 30 min soak
T1 construct: residues 33-316, homopentamer; N-terminal His-tag cut by thrombin leaving GSHM; pET15b, E. coli BL21

PTA VP1 = target: T2, PTA VP1 (Alphapolyomavirus muris, UniProt A0A247D727); test: X-ray crystal structure of complex; details: receptor-binding pocket
T2 construct: residues 33-316, homopentamer; N-terminal His-tag cut by thrombin leaving GSHM; pET15b, E. coli BL21

Structure (SMILES) | concentration-dependent crystal soaking, electron density quantified (RA VP1) | X-ray crystal structure of complex (PTA VP1)
CC(=O)N[C@H]1[C@H](O[C@H]2[C@@H](O)[C@@H](CO)O[C@@H](O[C@H]3[C@H](O)[C@@H](O)C(O)O[C@@H]3CO)[C@@H]2O)O[C@H](CO[C@]2(C(=O)O)C[C@H](O)[C@@H](NC(C)=O)[C@H]([C@H](O)[C@H](O)CO)O2)[C@@H](O)[C@@H]1O[C@@H]1O[C@H](CO)[C@H](O)[C@H](O[C@]2(C(=O)O)C[C@H](O)[C@@H](NC(C)=O)[C@H]([C@H](O)[C@H](O)CO)O2)[C@H]1O (some centres unmarked) [DSLNT] | Electron density of GT1a, GD1a, and DSLNT in RA VP1 | 
CC(=O)N[C@H]1[C@H]([C@H](O)[C@H](O)CO)O[C@@](O[C@H](CO)[C@@H](O)[C@@H]2O[C@@](O[C@H]3[C@@H](O)[C@@H](CO)O[C@@H](O[C@H]4[C@H](O)[C@@H](O)C(O)O[C@@H]4CO)[C@@H]3O)(C(=O)O)C[C@H](O)[C@H]2NC(C)=O)(C(=O)O)C[C@@H]1O (some centres unmarked) [GD3, glycan portion of GD3] |  | the crystal structure of PTA with the glycan portion of GD3 shows an identical binding mechanism
